From patent US20250275967A1, “FREEZE DRIED COMPOSITIONS” (Janssen Sciences Ireland Unlimited Company, priority 2022, published 2025) come the findings set out here.

The nature of this data set: rilpivirine particle size by wet dispersion laser diffraction. The note with it: rilpivirine nanoparticles used for the aqueous compositions of Example 5. It is filed as physicochemical. As for the experimental part:
The compositions were freeze dried and reconstituted with water to provide 9 mL of the reconstituted aqueous composition at time t=0, freeze dried and reconstituted with water to provide 9 mL of the reconstituted aqueous composition after being stored under conditions of 25° C./60% RH and 40° C./75% RH for 1 month, and freeze dried and reconstituted with water to provide 9 mL of the reconstituted aqueous composition after being stored under conditions of 25° C./60% RH for 6 months. The rilpivirine particle sizes were measured in both instances following the method below.
The volume-based particle size distribution of the rilpivirine suspensions was determined by means of wet dispersion laser diffraction, using a Malvern Mastersizer 3000 laser diffraction (Malvern Instruments) and Hydro MV wet dispersion module.

Regarding `Cc1cc(/C=C/C#N)cc(C)c1Nc1ccnc(Nc2ccc(C#N)cc2)n1` [rilpivirine nanoparticles, 4-[[4-[[4-[(1E)-2-cyanoethenyl]-2,6-dimethylphenyl]amino]-2-pyrimidinyl]amino]-benzonitrile], the Dv10 result is recorded as “about 96.5 nm”, the Dv50 result is “about 224 nm” and the Dv90 result is listed as “about 509 nm”.
